Measured values as given in patent US4749571A, “Physiologically-active novel substance "Aldostatin" and production method thereof” (Toyo Jozo Co., Ltd., priority 1986, dated 1988).

Experiments:
aldose reductase = target: T1, aldose reductase (Bos taurus, UniProt P16116); assay: Aldose reductase inhibitory activity; format: biochemical, bovine (lenses); settings: partially purified bovine lens enzyme
T1 construct: partially purified aldose reductase derived from bovine lenses; from tissue; host or cells: bovine lenses
Description: The preparation of an aldose reductase and the quantitative analysis of its enzymatic activity were effected in accordance with the method described by Hayman et al. in "Journal of Biological Chemistry" 240, 877 (1965). It was a partially purified aldose reductase derived from bovine lenses that was employed as an enzyme. Placed in a quartz cell in a spectrophotometer photometer was 2.4 ml of a 5×10^- 5M NADPH solution dissolved in 2/15M phosphate buffer (pH 6.0), 0.4 ml of 15 milli-units/ml solution of the enzyme and 0.1 ml of an aqueous aldostatin of one of various concentration. The contents were pre-incubated at 37° C. for 4 minutes. […] The reduction of the absorbance at 340 nm was traced at 37° C. for 4 minutes. At that time, the value (B) of tan θ was determined. Similarly, the reduction of the absorbance at 340 nm without addition of the inhibitor "aldostatin" was tracked. At that time, the value (A) of tan θ was determined. Percent inhibition (%) was calculated as follows. [formula]
The amount of inhibitor for 50% inhibition was expressed as IC50.

Solubility = format: physicochemical
mice = assay: Acute toxicity; format: in vivo; settings: i.v., dose of 200 mg/kg

With `O=CN[C@@H](Cc1ccc(O)c(-c2cc(C[C@H](NC=O)C(=O)O)ccc2O)c1)C(=O)O` [aldostatin] the IC50 (aldose reductase; substrate glucose (5.0 × 10^-2 M)) was 2640 nM, the IC50 (aldose reductase; substrate glyceraldehyde (5.0 × 10^-4 M), NADPH, pH 6.0, 37° C.) was 1200 nM and the solubility (Solubility; acetone) was “slightly soluble”. The solubility (Solubility; benzene) was “insoluble”, the solubility (Solubility; chloroform) was “slightly soluble” and the solubility (Solubility; dimethylsulfoxide) was “soluble”. The solubility (Solubility; ethyl acetate) was “slightly soluble”, the solubility (Solubility; hexane) was “insoluble” and the solubility (Solubility; methanol) was “soluble”. For the same compound, the solubility (Solubility; petroleum ether) was “insoluble”, the solubility (Solubility; water) was “soluble” and the “toxic effect (acute toxicity)” value (mice) was “no toxic effect”.
